Reference: publication PMC12396409, “Screening and hit evaluation of a microbial metabolite library against the pathogenic Plasmodium falciparum and Toxoplasma gondii parasites” (International Journal for Parasitology: Drugs and Drug …, 2025)
Where two headings read alike, the source gives them in different places.

How the values were obtained:
[1] = tested on: P. falciparum 3D7 parasites; assay: P. falciparum growth inhibition assay, 2-cycle (120 h treatment), delayed-death screen and dose-response; assay type: cell-based, Plasmodium falciparum; conditions: P. falciparum, 120 h, parasite screen 2 μg/mL, % growth; for activity at 2 µg/mL: Plasmodium falciparum
[2] = tested on: T. gondii RH strain (RH-Tub-eYFP) tachyzoites; assay: microbe, parasite or virus in culture; assay type: cell-based, Toxoplasma gondii; conditions: 72 h, T. gondii, 72 h, parasite screen 2 μg/mL, % growth; for percent parasite growth at 2 µg/mL: Toxoplasma gondii
[3] = tested on: P. falciparum 3D7 parasites; assay: P. falciparum growth inhibition assay, 1-cycle (72 h treatment), SYBR DNA staining (library screen at 2 μg/mL and dose-response); assay type: cell-based, Plasmodium falciparum; conditions: P. falciparum, 72 h, parasite screen 2 μg/mL, % growth; for activity at 2 µg/mL: Plasmodium falciparum
[4] = 3D7, 120 h, replicate 1, read-out: Pf_120h_%Growth_Rep1
[5] = 3D7, 120 h, replicate 2, read-out: Pf_120h_%Growth_Rep2
[6] = replicate 1, read-out: Tg_72h_%Growth_Rep1
[7] = replicate 2, read-out: Tg_72h_%Growth_Rep2
[8] = 3D7, 72 h, replicate 1, read-out: Pf_72h_%Growth_Rep1
[9] = 3D7, 72 h, replicate 2, read-out: Pf_72h_%Growth_Rep2
[10] = 3D7, replicate 1, read-out: Pf_120h_%Growth_Rep1
[11] = 3D7, replicate 2, read-out: Pf_120h_%Growth_Rep2
[12] = 3D7, replicate 1, read-out: Pf_72h_%Growth_Rep1
[13] = 3D7, replicate 2, read-out: Pf_72h_%Growth_Rep2

Row | SMILES | activity at 2 µg/mL [1, 4] [%] | activity at 2 µg/mL [1, 5] [%] | percent parasite growth at 2 µg/mL [2, 6] [%] | percent parasite growth at 2 µg/mL [2, 7] [%] | activity at 2 µg/mL [3, 8] [%] | activity at 2 µg/mL [3, 9] [%] | Pf_120h_%Growth_Rep1 ([1]; replicate 1) [%] | Pf_120h_%Growth_Rep2 ([1]; replicate 2) [%] | Tg_72h_%Growth_Rep1 ([2]; replicate 1) [%] | Tg_72h_%Growth_Rep2 ([2]; replicate 2) [%] | Pf_72h_%Growth_Rep1 ([3]; replicate 1) [%] | Pf_72h_%Growth_Rep2 ([3]; replicate 2) [%] | activity at 2 µg/mL [1, 10] [%] | activity at 2 µg/mL [1, 11] [%] | activity at 2 µg/mL [3, 12] [%] | activity at 2 µg/mL [3, 13] [%]
1 | COC(=O)[C@]12Oc3cc(C)c(-c4c(C)cc5c(c4O)C(=O)C4=C(O)CC[C@H](O)[C@@]4(C(=O)OC)O5)c(O)c3C(=O)C1=C(O)CC[C@@H]2O [Rugulotrosin A] | 69.8 | 107 | 118 | 86.1 | 69.8 | 106 |  |  |  |  |  |  |  |  |  | 
2 | CCC1C=CC2C=C(C)C(OC3CC(C)(O)C(NC(C)=O)C(C)O3)C(C)C=C(C)C3C=CC4C(OC5CC(O)C(OC6CC(OC7CCC(O)C(C)O7)C(OC7CC(O)C(O)C(C)O7)C(C)O6)C(C)O5)C(C)CC(C)C4C3(C)C(O)=C3C(=O)OC2(C1)C3=O (stereo not drawn) [Saccharocarcin A] |  |  |  |  |  |  | 14.27 | 13.84 | -0.34 | 2.07 | 25.38 | 12.51 |  |  |  | 
3 | Cc1cc(O)c(C=O)c2c1C(=O)Oc1c(CO)c(O)c3c(c1O2)C(O)OC3=O (stereo not drawn) [Salazinic acid] |  |  |  |  |  |  | 77.56 | 74.04 | 117.03 | 97.23 | 86.18 | 54.69 |  |  |  | 
4 | CC[C@@H](C(=O)[C@@H](C)[C@@H](O)[C@H](C)[C@@H]1O[C@@H]([C@@H](CC)C(=O)O)CC[C@@H]1C)[C@H]1O[C@]2(C=C[C@@H](O)[C@]3(CC[C@@](C)([C@H]4CC[C@](O)(CC)[C@H](C)O4)O3)O2)[C@H](C)C[C@@H]1C [Salinomycin sodium] |  |  |  |  |  |  | 8.77 | -2.16 | 1.25 | 0.43 | 3.74 | -3.65 |  |  |  | 
5 | CC[C@@H](C(=O)[C@@H](C)[C@@H](O)[C@H](C)[C@@H]1O[C@@H]([C@@H](CC)C(=O)O)CC[C@@H]1C)[C@H]1O[C@]2(C=C[C@@H](O)[C@]3(CC[C@@](C)([C@H]4CC[C@](O)(CC)[C@H](C)O4)O3)O2)[C@H](C)C[C@@H]1C [Salinomycin] | 13.6 |  | 2.46 |  | 3.76 |  |  | 1.02 |  | 0.21 |  | -1.92 |  |  |  | 
6 | CN(C)[C@@H]1C(=O)C(C(N)=O)=C(O)[C@@]2(O)C(=O)C3=C(O)c4c(O)cccc4C[C@H]3C[C@@H]12.Cl [Sancycline hydrochloride] |  |  |  |  |  |  | 6.81 | 7.98 | 58.51 | 60.28 | 1.26 | 7.80 |  |  |  | 
7 | CC(C)[C@H]1C(=O)OC[C@H](NC(=O)c2nc3ccccc3cc2O)C(=O)N2CCCC[C@@H]2C(=O)NCC(=O)N(C)CC(=O)N(C)[C@H](C(C)C)C(=O)OC[C@@H](NC(=O)c2nc3ccccc3cc2O)C(=O)N2CCCC[C@@H]2C(=O)NCC(=O)N(C)CC(=O)N1C [Sandramycin] |  |  |  |  |  |  | -0.53 | 18.12 | 1.61 | 2.90 | -1.10 | -0.11 |  |  |  | 
8 | C=C1CC[C@H](OC(C)=O)C(C)(C)[C@@H]1CC/C(C)=C/CC/C(C)=C/Cc1c(O)cc(C)oc1=O [Sartorypyrone A] |  |  |  |  |  |  | 16.39 | 52.54 | 82.97 | 82.11 | 32.17 | 81.37 |  |  |  | 
9 | CC(=O)O[C@H]1C[C@]2(C)[C@H]3CC[C@]4(C)Oc5oc(C)cc(=O)c5C[C@H]4[C@]3(C)CC[C@H]2C(C)(C)[C@H]1OC(C)=O [Sartorypyrone B] |  |  |  |  |  |  | 68.83 | 125.68 | 114.72 | 87.54 | 77.80 | 111.47 |  |  |  | 
10 | C=C1CC[C@H](O)C(C)(C)[C@@H]1CC/C(C)=C/CC/C(C)=C/Cc1c(O)cc(C)oc1=O [Sartorypyrone D] |  |  |  |  |  |  | 72.77 | 7.76 | 121.13 | 88.47 | 81.94 | 66.06 |  |  |  | 
11 | C[C@H]1O[C@@H]2CC(=O)O[C@@H]2C2=C1C(=O)c1c(O)cc3c(c1C2=O)[C@H]1C[C@@H](N(C)C)[C@H](O)[C@]3(C)O1 [Sch 38519] |  |  |  |  |  |  | 51.02 | 51.53 | 50.53 | 29.49 | 54.64 | 23.72 |  |  |  | 
12 | CCCCC[C@@H]1CCCCC[C@@H](O)C[C@H](O)[C@H](O)/C=C/C(=O)O1 [Sch 725674] |  |  |  |  |  |  | 118.17 | 96.28 | 110.92 | 69.04 | 94.68 | 136.05 |  |  |  | 
13 | O=C1NCc2nc3ccccc3c(=O)n2-c2ccccc21 [Sclerotigenin] |  |  | 82 | 103 |  |  |  |  |  |  |  |  | 169 | 96.5 | 90.7 | 89.5
14 | O=C1C=C2C=C[C@@H]3C[C@@]2(O1)[C@H]1CCCCN31 [Securinine] | 14.2 | 10.7 | 46.1 | 60.2 | 19.3 | 10.7 |  |  |  |  |  |  |  |  |  | 
15 | CC1(C)C=Cc2c(ccc3ccc(=O)oc23)O1 [Seselin] |  |  |  |  |  |  | 59.04 | 133.69 | 115.94 | 77.58 | 72.86 | 126.42 |  |  |  | 
16 | CC(=O)C1C(C)=CC(=O)c2c1c(-c1c3c(c(O)c4c(O)cccc14)C(=O)CC(C)(O)C3C(C)=O)c1cccc(O)c1c2O (stereo not drawn) [Setomimycin] |  |  |  |  |  |  | 7.52 | 6.30 | 70.47 | 40.70 | 8.25 | 3.46 |  |  |  | 
17 | CC(=O)O[C@@H]1CC(=O)OC(C)(C)[C@H]2CC[C@@]3(C)[C@@H](CC=C(C)[C@]34C[C@]3(OC(C)=C(C)C3=O)C(=O)O4)[C@@]21C [Setosusin] |  |  |  |  |  |  | 76.96 | 104.05 | 121.79 | 85.10 | 71.51 | 99.05 |  |  |  | 
18 | Cc1cc(O)c2c(c1)O[C@@]1(C)CC[C@H]3C(C)(C)CCC[C@]34CO[C@@H]2[C@H]41 [Siccanin] |  |  | 99.3 | 83.6 |  |  |  |  |  |  |  |  | 73 | 114 | 76 | 49.5
19 | CCC(C)(C)C(=O)O[C@H]1C[C@@H](C)C=C2C=C[C@H](C)[C@H](CC[C@@H]3C[C@@H](O)CC(=O)O3)[C@H]21 [Simvastatin] | 83.8 | 70.2 | 93.5 | 71.4 | 83.1 | 118 |  |  |  |  |  |  |  |  |  | 
